Assay results from ChEMBL document CHEMBL5316291 (J Med Chem, 2023).
One block for each compound: values may come before it.

How the values were obtained:
[1] = target: T1, Protein mono-ADP-ribosyltransferase TIPARP (Homo sapiens) (UniProt Q7Z3E1); assay: Inhibition of human recombinant N-terminal FLAG tagged PARP7 (400 to 657 end residues) at 100 nM incubated for 1 hr by ELISA assay relative to control
T1 sequence (whole entry): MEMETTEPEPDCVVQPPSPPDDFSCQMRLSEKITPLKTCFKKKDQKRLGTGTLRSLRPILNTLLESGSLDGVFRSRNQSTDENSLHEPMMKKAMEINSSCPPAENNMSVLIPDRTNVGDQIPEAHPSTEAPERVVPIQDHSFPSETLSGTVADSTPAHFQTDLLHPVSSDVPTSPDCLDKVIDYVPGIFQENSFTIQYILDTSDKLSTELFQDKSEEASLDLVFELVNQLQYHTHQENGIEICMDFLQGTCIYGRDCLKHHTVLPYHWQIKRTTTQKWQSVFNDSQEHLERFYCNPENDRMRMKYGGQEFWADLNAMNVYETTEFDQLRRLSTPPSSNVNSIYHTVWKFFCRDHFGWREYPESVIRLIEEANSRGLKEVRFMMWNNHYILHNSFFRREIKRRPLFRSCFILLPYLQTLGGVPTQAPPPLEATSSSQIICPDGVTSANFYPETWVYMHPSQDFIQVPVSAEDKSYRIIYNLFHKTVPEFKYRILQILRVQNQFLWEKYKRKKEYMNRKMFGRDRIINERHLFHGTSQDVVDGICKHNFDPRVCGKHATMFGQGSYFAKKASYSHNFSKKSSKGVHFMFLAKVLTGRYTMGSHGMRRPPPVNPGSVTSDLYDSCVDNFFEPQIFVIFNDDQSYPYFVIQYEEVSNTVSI

[2] = target: Poly [ADP-ribose] polymerase 1 (Homo sapiens, UniProt P09874); assay: Inhibition of human recombinant N-terminal GST-tagged PARP1 (2 to 1014 end residues) incubated for 1 hr by ELISA assay
[3] = target: T2, Protein mono-ADP-ribosyltransferase TIPARP (Homo sapiens, UniProt Q7Z3E1); assay: Inhibition of human recombinant N-terminal FLAG tagged PARP7 (400 to 657 end residues) incubated for 1 hr by ELISA assay
T2 sequence (Q7Z3E1 whole entry): T1 sequence (whole entry)

[4] = Half life in ICR mouse at 1 mg/kg, iv measured upto 24 hrs by LC-MS/MS analysis; type: ADME, organism-based; conditions: in vivo
[5] = Half life in ICR mouse at 10 mg/kg, po measured upto 24 hrs by LC-MS/MS analysis; type: ADME, organism-based; conditions: in vivo
[6] = Tmax in ICR mouse at 1 mg/kg, iv measured upto 24 hrs by LC-MS/MS analysis; type: ADME, organism-based; conditions: in vivo
[7] = Tmax in ICR mouse at 10 mg/kg, po measured upto 24 hrs by LC-MS/MS analysis; type: ADME, organism-based; conditions: in vivo
[8] = Initial plasma concentration in ICR mouse at 1 mg/kg, iv measured upto 24 hrs by LC-MS/MS analysis; type: ADME, organism-based
[9] = AUC(0 to infinity) in ICR mouse at 1 mg/kg, iv measured upto 24 hrs by LC-MS/MS analysis; type: ADME, organism-based; parameters: time < 24 hrs, dose 1 mg/kg, route iv; conditions: in vivo
[10] = AUC(0 to infinity) in ICR mouse at 10 mg/kg, po measured upto 24 hrs by LC-MS/MS analysis; type: ADME, organism-based; parameters: dose 10 mg/kg, time < 24 hrs, route po; conditions: in vivo
[11] = Apparent volume of distribution in ICR mouse at 1 mg/kg, iv measured upto 24 hrs by LC-MS/MS analysis; type: ADME, organism-based; conditions: in vivo, read-out: Vz
[12] = Apparent volume of distribution in ICR mouse at 10 mg/kg, po measured upto 24 hrs by LC-MS/MS analysis; type: ADME, organism-based; conditions: in vivo
[13] = Clearance in ICR mouse at 1 mg/kg, iv measured upto 24 hrs by LC-MS/MS analysis; type: ADME, organism-based; conditions: in vivo
[14] = Clearance in ICR mouse at 10 mg/kg, po measured upto 24 hrs by LC-MS/MS analysis; type: ADME, organism-based; conditions: in vivo
[15] = MRT(0 to infinity) in ICR mouse at 1 mg/kg, iv measured upto 24 hrs by LC-MS/MS analysis; type: ADME, organism-based; conditions: in vivo
[16] = MRT(0 to infinity) in ICR mouse at 10 mg/kg, po measured upto 24 hrs by LC-MS/MS analysis; type: ADME, organism-based; conditions: in vivo
[17] = Oral bioavailability in ICR mouse at 10 mg/kg measured upto 24 hrs by LC-MS/MS analysis; type: ADME, organism-based; conditions: in vivo
[18] = Cytotoxicity against mouse AML12 cells assessed as inhibition of cell growth measured after 6 days by MTT assay; type: toxicity, cell-based
CT26 [19] = assay: Antitumor activity against mouse CT26 cells xenografted in BALB/c mouse assessed as tumor growth inhibition at 100 mg/kg, po bid measured for 14 days; type: functional; conditions: CT26, 336 h, time 14 day, read-out: TGI
[20] = Toxicity in BALB/c mouse implanted with mouse CT26 cells assessed as lung damage at 100 mg/kg, po measured for 14 days by hematoxylin and eosin staining based fluorescence microscopic analysis; type: organism-based; conditions: in vivo, 336 h, time 14 day
[21] = Toxicity in BALB/c mouse implanted with mouse CT26 cells assessed as liver damage at 100 mg/kg, po measured for 14 days by hematoxylin and eosin staining based fluorescence microscopic analysis; type: organism-based; conditions: in vivo, 336 h, time 14 day
[22] = Toxicity in BALB/c mouse implanted with mouse CT26 cells assessed as kidney damage at 100 mg/kg, po measured for 14 days by hematoxylin and eosin staining based fluorescence microscopic analysis; type: organism-based; conditions: in vivo, 336 h, time 14 day
[23] = Toxicity in BALB/c mouse implanted with mouse CT26 cells assessed as spleen damage at 100 mg/kg, po measured for 14 days by hematoxylin and eosin staining based fluorescence microscopic analysis; type: organism-based; conditions: in vivo, 336 h, time 14 day
CT26 [24] = assay: Antitumor activity against mouse CT26 cells implanted in BALB/c mouse assessed as increase in infiltration of CD3 positive CD4 positive T lymphocytes in tumors at 100 mg/kg, po measured after 14 days by flow cytometry (reference value: 7.95%); type: functional; conditions: time 14 day
CT26 [25] = assay: Antitumor activity against mouse CT26 cells implanted in BALB/c mouse assessed as increase in infiltration of CD4 positive CD8 positive T lymphocytes in tumors at 100 mg/kg, po measured after 14 days by flow cytometry (reference value: 6.67%); type: functional; conditions: time 14 day

Poly [ADP-ribose] polymerase 1, sequence (P09874 whole entry): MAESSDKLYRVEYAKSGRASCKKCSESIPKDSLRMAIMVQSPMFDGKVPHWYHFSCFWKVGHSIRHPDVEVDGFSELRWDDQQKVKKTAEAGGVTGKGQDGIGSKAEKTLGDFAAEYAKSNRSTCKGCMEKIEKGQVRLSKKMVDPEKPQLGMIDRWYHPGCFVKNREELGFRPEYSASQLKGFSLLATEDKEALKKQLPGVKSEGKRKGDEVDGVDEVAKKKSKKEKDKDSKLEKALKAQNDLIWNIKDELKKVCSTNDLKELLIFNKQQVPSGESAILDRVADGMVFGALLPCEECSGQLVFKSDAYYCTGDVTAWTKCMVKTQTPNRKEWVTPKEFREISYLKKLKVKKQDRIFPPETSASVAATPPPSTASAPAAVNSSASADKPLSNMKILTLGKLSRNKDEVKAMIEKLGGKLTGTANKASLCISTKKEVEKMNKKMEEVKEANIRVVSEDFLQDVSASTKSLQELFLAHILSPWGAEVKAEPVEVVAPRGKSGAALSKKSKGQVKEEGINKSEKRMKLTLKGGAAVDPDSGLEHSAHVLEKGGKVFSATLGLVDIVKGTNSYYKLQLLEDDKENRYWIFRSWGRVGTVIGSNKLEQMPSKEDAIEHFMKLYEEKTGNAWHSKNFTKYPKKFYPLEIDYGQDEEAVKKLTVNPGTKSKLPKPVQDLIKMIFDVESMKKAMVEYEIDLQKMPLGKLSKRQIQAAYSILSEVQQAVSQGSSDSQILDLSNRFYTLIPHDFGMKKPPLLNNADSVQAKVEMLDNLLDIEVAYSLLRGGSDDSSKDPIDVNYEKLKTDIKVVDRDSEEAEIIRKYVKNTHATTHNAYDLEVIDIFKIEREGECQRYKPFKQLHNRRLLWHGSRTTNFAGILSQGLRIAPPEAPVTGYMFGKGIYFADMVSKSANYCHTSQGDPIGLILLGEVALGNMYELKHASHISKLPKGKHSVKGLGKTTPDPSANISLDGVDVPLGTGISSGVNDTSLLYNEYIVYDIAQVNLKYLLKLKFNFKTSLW

inhibition [1]: 26%
SMILES: C[C@@H](CN1CC(C(=O)N2CCN(c3ncc(F)cn3)CC2)C1)Nc1cn[nH]c(=O)c1C(F)(F)F

inhibition [1]: 95%
IC50 [3]: 29.2 nM
SMILES: C[C@@H](CN1CC(C(=O)N2CCN(c3ncc(S(C)(=O)=O)cn3)CC2)C1)Nc1cn[nH]c(=O)c1C(F)(F)F

inhibition [1]: 51%
SMILES: C[C@@H](CN1CC(C(=O)NC2CN(c3ncc(C(F)(F)F)cn3)C2)C1)Nc1cn[nH]c(=O)c1C(F)(F)F

inhibition [1]: 35%
SMILES: C[C@@H](CN1CC(C(=O)N2CCN(c3cccc4c3oc3ccccc34)CC2)C1)Nc1cn[nH]c(=O)c1C(F)(F)F

inhibition [1]: 51.4%
IC50 [3]: 42.4 nM
SMILES: Cc1cnc(N2CCN(C(=O)C3CN(C[C@H](C)Nc4cn[nH]c(=O)c4C(F)(F)F)C3)CC2)nc1

inhibition [1]: 33.6%
IC50 [2]: > 5000 nM
SMILES: C[C@@H](CN1CCC(C(=O)N2CCN(c3ncc(C(F)(F)F)cn3)CC2)CC1)Nc1cn[nH]c(=O)c1C(F)(F)F

inhibition [1]: 85.5%
IC50 [3]: 11.1 nM
SMILES: C[C@@H](CN1CC(C(=O)N2CCN(c3ncc(Br)cn3)CC2)C1)Nc1cn[nH]c(=O)c1C(F)(F)F

inhibition [1]: 55.5%
IC50 [3]: 116 nM
SMILES: C[C@@H](CN1CC(C(=O)N2C3CC2CN(c2ncc(C(F)(F)F)cn2)C3)C1)Nc1cn[nH]c(=O)c1C(F)(F)F

The next lines start with the compound.

SMILES: C[C@@H](CN1CC(C(=O)N2CCN(c3ncccn3)CC2)C1)Nc1cn[nH]c(=O)c1C(F)(F)F
inhibition [1]: 18%

SMILES: O=C(C1CN(CC2(Nc3cn[nH]c(=O)c3C(F)(F)F)CC2)C1)N1CCN(c2ncc(C(F)(F)F)cn2)CC1
inhibition [1]: 39.6%

SMILES: C[C@@H](CN1CCC(C(=O)N2CCN(c3ncc(C(F)(F)F)cn3)CC2)C1)Nc1cn[nH]c(=O)c1C(F)(F)F (some centres undefined)
inhibition [1]: 44.9%
IC50 [2]: 1130 nM

SMILES: O=C(C1CN(CCNc2cn[nH]c(=O)c2C(F)(F)F)C1)N1CCN(c2ncc(C(F)(F)F)cn2)CC1
inhibition [1]: 66.8%
IC50 [3]: 39.3 nM

SMILES: C[C@@H](CN1CC(C(=O)N2CCN(c3ccc(C(F)(F)F)cn3)CC2)C1)Nc1cn[nH]c(=O)c1C(F)(F)F
inhibition [1]: 82%
IC50 [3]: 14.5 nM

SMILES: C[C@@H](CN1CC(C(=O)N2CCN(c3nccc(C(F)(F)F)n3)CC2)C1)Nc1cn[nH]c(=O)c1C(F)(F)F
inhibition [1]: 65%

SMILES: C[C@@H](CN1CC(C(=O)N2CCN(c3ncc(Cl)cn3)CC2)C1)Nc1cn[nH]c(=O)c1C(F)(F)F
inhibition [1]: 75.5%

SMILES: C[C@@H](CN1CC(C(=O)N2CCN(c3ncc(C#N)cn3)CC2)C1)Nc1cn[nH]c(=O)c1C(F)(F)F
inhibition [1]: 71.5%
IC50 [3]: 34.5 nM

SMILES: C[C@@H](CN1CC(C(=O)N2CCN(c3ccc(C(F)(F)F)cc3)CC2)C1)Nc1cn[nH]c(=O)c1C(F)(F)F
inhibition [1]: 32%

SMILES: COc1cnc(N2CCN(C(=O)C3CN(C[C@H](C)Nc4cn[nH]c(=O)c4C(F)(F)F)C3)CC2)nc1
inhibition [1]: 56%

SMILES: C[C@@H](CN1CC(C(=O)N2CCN(c3ccc4c(c3)OC(F)(F)O4)CC2)C1)Nc1cn[nH]c(=O)c1C(F)(F)F
inhibition [1]: 90%
IC50 [3]: 19.4 nM

SMILES: C[C@@H](CN1CC(C(=O)N2CCN(c3ncc(-c4ccc(C(F)(F)F)cc4)cn3)CC2)C1)Nc1cn[nH]c(=O)c1C(F)(F)F
inhibition [1]: 40%

SMILES: C[C@@H](COCCC(=O)N1CCN(c2ncc(C(F)(F)F)cn2)CC1)Nc1cn[nH]c(=O)c1C(F)(F)F [ATAMPARIB]
t1/2 [4]: 9 min
t1/2 [5]: 54 min
Tmax [6]: 4.8 min
Tmax [7]: 13.2 min
C0 at 24 h [8]: 1230 ng/mL
AUC [9]: 256 ng·h/mL
AUC [10]: 656 ng·h/mL
Vd [11]: 0.872 L/kg
Vz [12]: 19.694 L/kg
clearance [13]: 67 mL/min/kg
CL/F [14]: 259 mL/min/kg
MRT inf [15]: 12 min
MRT inf [16]: 54 min
bioavailability [17]: 25.7%
IC50 at 6 days [18]: > 50000 nM
inhibition in vivo at 100 mg/kg (CT26 [19]): 30%
Activity [20]: Non-Toxic
Activity [21]: Non-Toxic
Activity [22]: Non-Toxic
Activity [23]: Non-Toxic
Activity (CT26 [24]): 48.2%
Activity (CT26 [25]): 19.1%

SMILES: CC1CN(c2ncc(C(F)(F)F)cn2)CC(C)N1C(=O)C1CN(C[C@H](C)Nc2cn[nH]c(=O)c2C(F)(F)F)C1 (some centres undefined)
inhibition [1]: 77%
IC50 [3]: 110 nM
